Patent publication US20130196050A1, “SALTY TASTE ENHANCER” (AJINOMOTO CO., INC., priority 2010, published 2013)

target: T1, Human ENaC δ, β and γ subunit (Homo sapiens, UniProt P51168+P51170+P51172); experiment: Measurement of ENaC activation potency (two electrode voltage clamp current in ENaC-expressing oocyte); type: cell-based; details: lowest concentration increasing the current value by not less than 10% vs before addition
T1 construct: expressed in transfected cells; host or cells: Xenopus laevis (African clawed frog) oocytes injected with cRNA
T1 sequence (P51172 1-638 isoform P51172-1): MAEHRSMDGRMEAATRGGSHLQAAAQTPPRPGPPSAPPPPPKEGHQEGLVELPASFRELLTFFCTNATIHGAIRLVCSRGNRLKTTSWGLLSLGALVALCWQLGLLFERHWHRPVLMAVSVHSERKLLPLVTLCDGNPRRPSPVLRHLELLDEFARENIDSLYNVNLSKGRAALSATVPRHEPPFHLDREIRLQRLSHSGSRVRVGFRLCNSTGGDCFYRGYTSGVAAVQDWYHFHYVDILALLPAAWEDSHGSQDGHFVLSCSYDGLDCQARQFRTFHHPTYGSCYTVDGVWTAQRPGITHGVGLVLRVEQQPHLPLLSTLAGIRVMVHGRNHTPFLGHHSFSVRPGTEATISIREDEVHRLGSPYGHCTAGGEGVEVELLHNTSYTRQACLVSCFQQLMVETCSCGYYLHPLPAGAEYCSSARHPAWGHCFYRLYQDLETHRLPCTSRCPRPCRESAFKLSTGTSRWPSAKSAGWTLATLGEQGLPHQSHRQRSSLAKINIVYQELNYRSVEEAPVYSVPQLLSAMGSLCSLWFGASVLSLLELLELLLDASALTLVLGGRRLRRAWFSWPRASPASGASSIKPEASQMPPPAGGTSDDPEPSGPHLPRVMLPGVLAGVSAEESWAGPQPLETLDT
T1 sequence (P51168 1-640): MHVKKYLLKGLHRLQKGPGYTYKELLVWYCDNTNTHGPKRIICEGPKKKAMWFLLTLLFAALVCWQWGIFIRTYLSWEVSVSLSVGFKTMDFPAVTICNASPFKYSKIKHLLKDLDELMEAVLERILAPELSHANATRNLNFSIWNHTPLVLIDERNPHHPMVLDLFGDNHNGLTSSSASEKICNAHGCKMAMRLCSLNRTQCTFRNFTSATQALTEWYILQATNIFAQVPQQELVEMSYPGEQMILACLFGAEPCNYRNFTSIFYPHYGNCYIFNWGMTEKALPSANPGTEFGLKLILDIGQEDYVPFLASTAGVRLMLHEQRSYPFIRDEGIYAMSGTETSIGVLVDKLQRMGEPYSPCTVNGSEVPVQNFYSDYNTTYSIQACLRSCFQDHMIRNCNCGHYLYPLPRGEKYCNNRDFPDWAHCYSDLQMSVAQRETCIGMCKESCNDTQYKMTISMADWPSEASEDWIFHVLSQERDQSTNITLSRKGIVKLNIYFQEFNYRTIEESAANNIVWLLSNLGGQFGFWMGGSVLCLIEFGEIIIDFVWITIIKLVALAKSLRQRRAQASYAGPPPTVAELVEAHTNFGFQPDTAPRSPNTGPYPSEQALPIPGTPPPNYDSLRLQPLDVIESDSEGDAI
T1 sequence (P51170 1-649): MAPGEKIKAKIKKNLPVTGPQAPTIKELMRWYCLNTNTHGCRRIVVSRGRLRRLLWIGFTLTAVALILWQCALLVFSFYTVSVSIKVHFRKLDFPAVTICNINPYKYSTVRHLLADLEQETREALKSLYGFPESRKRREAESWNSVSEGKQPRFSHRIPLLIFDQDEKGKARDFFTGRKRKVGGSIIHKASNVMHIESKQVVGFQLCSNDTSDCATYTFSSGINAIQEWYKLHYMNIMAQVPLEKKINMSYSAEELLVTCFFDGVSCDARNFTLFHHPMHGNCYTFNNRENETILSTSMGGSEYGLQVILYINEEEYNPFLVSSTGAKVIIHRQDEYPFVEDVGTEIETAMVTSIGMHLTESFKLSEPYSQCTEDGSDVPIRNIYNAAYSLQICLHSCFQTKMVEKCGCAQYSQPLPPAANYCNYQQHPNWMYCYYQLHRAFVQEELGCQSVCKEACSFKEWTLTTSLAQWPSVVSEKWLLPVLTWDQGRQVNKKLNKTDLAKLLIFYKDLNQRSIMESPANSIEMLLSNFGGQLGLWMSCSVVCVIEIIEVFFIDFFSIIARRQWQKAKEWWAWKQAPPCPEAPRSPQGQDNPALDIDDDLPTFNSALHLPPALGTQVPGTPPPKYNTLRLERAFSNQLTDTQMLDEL
Description: ENaC activation current value, namely, the inward current in ENaC-expressing oocyte was measured as follows.
According to the method described in Motonao Nakamura, Takao Shimizu: Experiment of African clawed frog oocyte, Experimental Medicine Vol. 11, No. 3, 224-232 (1993), oocyte was collected from African clawed frog, […], and the current value was measured by a Two Electrode Voltage Clamp technique. In the present invention, ND96 (96 mM NaCl, 2 mM KCl, 1 mM MgCl2, 5 mM Hepes, 1.8 mM CaCl2, pH 7.6) was used instead of MBS buffer in the above-mentioned document. Injector NANOLITER 2000 manufactured by World Precision Instruments was used for microinjection, OpusXpress 6000A manufactured by Molecular Devices was used for current value measurement by a Two Electrode Voltage Clamp technique, and Clampfit 10.2 software manufactured by Molecular Devices was used for data analysis.
Human ENaC δ, β and γ subunit genes shown by SEQ ID NOs: 1, 2 and 3, respectively, in the Sequence Listing were each cloned into a plasmid vector, and used as a template DNA for cRNA synthesis. cRNA was synthesized using MEGAscript kit manufactured by Ambion and according to the method of the manual of the manufacturer.
A mixture of the same amount of ENaC δ subunit cRNA (0.4 to 0.8 μg/μL), and β and γ subunits cRNA (0.4 μg/μL) was injected into the oocyte of African clawed frog at 27.6 nL per oocyte, and the oocyte was cultured for 16 hours to 72 hours. Thereafter, the oocyte was set on a measuring apparatus OpusXpress 6000A, the electrodes were inserted into the oocyte, the voltage was clamped at a level lower by −30 mV than the resting membrane potential by a Two Electrode Voltage Clamp technique, and the current value was measured.
To measure the ENaC activation potency, oocyte was stimulated with each test compound, and the minimum effective dose (hereinafter to be abbreviated as MED) of the compound at the time point when the electric current started to increase was measured. In this case, the minimum effective dose of the stimulation compound that increased the current value by not less than 10%, as compared to the current value before addition of the compound and without stimulation, was taken as MED. A smaller MED means higher ENaC activation potency.
Each test compound was directly dissolved in ND96, or first dissolved in dimethyl sulfoxide (DMSO) to 100 mM, and then prepared by diluting the solution with ND96 to a concentration used for the evaluation. The concentration of the test compound in ND96 was prepared to various concentrations within the range of 0.1 nM to 300 μm.
ND96 as a perfusion fluid was flowed at a rate of 0.5 mL/min through the measuring apparatus OpusXpress 6000A on which ENaC-expressing oocyte was set, the perfusion fluid was temporarily stopped every 3 minutes to add a test compound solution (0.25 mL) dissolved in ND96 at a rate of 0.5 mL/minute. In this way, the test compound was contacted with ENaC-expressing oocyte, and whether ENaC is activated by the compound was examined by measuring the current value. After addition of the test compound, feeding of the perfusion fluid was resumed to wash away the compound to be ready for the next addition of the compound.
The compound was added successively from a low concentration to a high concentration to stimulate ENaC-expressing oocyte. The concentrations actually added was, for example, 1 nM, 3 nM, 10 nM, 30 nM, 100 nM, 300 nM; 1 μM, 3 μM, 10 μm, 30 μm, 100 μm, 300 μm; 1.2 μM, 6 μM, 30 μm, 150 μm of one test compound. The compound was added from low concentrations to high concentrations at 3 minute intervals. The first compound was added from a low concentration to a high concentration, then the second and the third compounds were similarly added successively to the same oocyte, and changes in the current value were measured. The current value was continuously measured from the start to the end of the experiment. […]

| SMILES | MED value (minimum effective dose) |
| --- | --- |
| Cn1cc(C[C@H](NC(=O)CCc2ccccc2)C(=O)O)c2ccccc21 [Example 71] | 1 to 3 µM |
| O=C(CCc1ccccc1)N[C@@H](Cc1ccccc1)C(=O)O [Example 72] | 1 to 3 µM |
| Cc1ccc2[nH]cc(CC(NC(=O)CCc3ccccc3)C(=O)O)c2c1 (stereo not drawn) [Example 73] | 1 to 3 µM |
| O=C(CCc1ccccc1)N[C@@H](Cc1c[nH]c2ccc(O)cc12)C(=O)O [Example 74] | 10 µM |
| CC(Cc1ccccc1)(NC(=O)CCc1ccccc1)C(=O)O (stereo not drawn) [Example 75] | 3 to 10 µM |
| O=C(CCc1ccccc1)NC(Cc1c[nH]c2ccc(F)cc12)C(=O)O (stereo not drawn) [Example 76] | 3 µM |
| Cc1ccc2c(CC(NC(=O)CCc3ccccc3)C(=O)O)c[nH]c2c1 (stereo not drawn) [Example 77] | 1 to 3 µM |
| CN(C(=O)CCc1ccccc1)[C@@H](Cc1ccccc1)C(=O)O [Example 78] | 3 µM |
| O=C(CCc1ccccc1)NC(C(=O)O)c1ccccc1 (stereo not drawn) [Example 79] | 10 µM |
| N[C@@H](Cc1ccccc1)C(=O)Nc1c(O)cccc1O [Example 80] | 3 µM |
| N[C@@H](CCc1ccccc1)C(=O)Nc1c(O)cccc1O [Example 81] | 3 µM |
| O=C(N[C@@H](Cc1ccccc1)C(=O)O)c1c(O)cccc1O [Example 82] | 1 µM |
| O=C(N[C@@H](CCc1ccccc1)C(=O)O)c1c(O)cccc1O [Example 83] | 0.3-1^ μM |
| O=C(NCCc1c[nH]c2ccccc12)c1c(O)cccc1O [Example 84] | 0.3 µM |
| O=C(CCc1c[nH]c2ccccc12)Nc1c(O)cccc1O [Example 87] | 3 µM |
| COc1ccc(CCC(=O)Nc2c(O)cccc2O)cc1O [Example 89] | 10 µM |
| COC(=O)[C@H](Cc1c[nH]c2ccccc12)NC(=O)c1cc(Br)ccc1O [Example 92] | 3 to 10 µM |

| SMILES | MED value (minimum effective dose) |
| --- | --- |
| O=C(NCCc1c[nH]c2ccc(O)cc12)c1cc(Br)ccc1O [Example 93] | 0.3 µM |
| O=C(NCCc1c[nH]c2ccccc12)c1cc(Br)ccc1O [Example 95] | 1 µM |
| COC(=O)[C@H](Cc1ccccc1)NC(=O)c1cc(Br)ccc1O [Example 96] | 1 µM |
| COC(=O)[C@H](CCc1ccccc1)NC(=O)c1cc(Br)ccc1O [Example 98] | 10 µM |
| N[C@@H](CCc1ccccc1)C(=O)Nc1ccccc1S(=O)(=O)O [Example 103] | 1 µM |
| O=C(NCCc1c[nH]c2ccc(O)cc12)c1ccc(Br)cc1O [Example 104] | 3 µM |
| COC(=O)[C@H](Cc1c[nH]c2ccccc12)NC(=O)c1ccc(Br)cc1O [Example 106] | 3 µM |
| COC(=O)[C@H](Cc1ccccc1)NC(=O)c1ccc(Br)cc1O [Example 107] | 3 µM |
| O=C(N[C@@H](Cc1ccccc1)C(=O)O)c1ccc(Br)cc1O [Example 108] | 0.1 to 0.3 µM |
| CCOC(=O)[C@H](Cc1ccccc1)NC(=O)c1cc(Br)ccc1O [Example 109] | 3 µM |
| O=C(N[C@@H](Cc1c[nH]c2ccccc12)C(=O)O)c1ccc(Br)cc1O [Example 110] | 0.1 to 0.3 µM |
| COC(=O)[C@H](Cc1c[nH]c2ccccc12)NC(=O)c1c(O)cc(C)cc1O [Example 112] | 1 µM |
| Cc1cc(O)c(C(=O)N[C@@H](Cc2c[nH]c3ccccc23)C(=O)O)c(O)c1 [Example 113] | 0.3 µM |
| CCOC(=O)[C@H](Cc1ccccc1)NC(=O)c1c(O)cc(C)cc1O [Example 114] | 10 µM |
| Cc1cc(O)c(C(=O)N[C@@H](Cc2ccccc2)C(=O)O)c(O)c1 [Example 115] | 0.3 µM |
| COC(=O)[C@H](CCc1ccccc1)NC(=O)c1c(O)cc(C)cc1O [Example 116] | 3 to 10 µM |
